In this assay the test system is Lung cancer cell line NCI-H358 containing KRas G12C mutation. Kind of assay: Assay for cell proliferation (Cell-titer Glo, 5 days). It is filed as cell-based, human. Conditions: for IC50: NCI-H358, 5 days, Cell-titer Glo, read-out: IC50 (nM), Inhibition of NCI-H358 Cell Proliferation. As for the experimental part:
One hundred fifty microliter (150 μL) of media containing 2000 cells per well were seeded into each well of a 96-well culture plate and left to attach overnight in a 37° C. incubator with 5% CO2. Diluted compounds of 0.75 μL for each well were added by liquid handler at a final concentration of 0.5% DMSO. Cells were treated for 5 days in the incubator. Cell-titer Glo (CTG) kit (Promega) was used to assess cell proliferation. Of note, 120 μL of CTG reagent was added to each well and incubated at RT for 10 minutes.

Read-outs that look alike come from different tables or passages of the source.

Regarding `C=CC(=O)N1CCN(c2nc(=O)n(-c3c(C(C)C)cc4c(ncn4C)c3C)c3nc(-c4ccccc4F)c(Cl)cc23)[C@@H](C)C1` [Compound 67], the IC50 (Homo sapiens, NCI-H358, 120 h) is 46.5 nM. Regarding `C=CC(=O)N1CCN(c2nc(=O)n(-c3c(C)cc4scnc4c3C(C)C)c3nc(-c4ccccc4F)c(Cl)cc23)[C@@H](C)C1` [Compound 68], where the note is “Homo sapiens, NCI-H358, 120 h”, the IC50 is 344 nM.

Turning to `C=CC(=O)N1CCN(c2nc(=O)n(-c3c(C)cc4c(ncn4C)c3C(C)C)c3nc(-c4ccccc4F)c(Cl)cc23)[C@@H](C)C1` [Compound 69], the IC50 was determined as 7.8 nM. For `C=CC(=O)N1CCN(c2nc(=O)n(-c3cc4ncn(C)c4nc3C(C)C)c3nc(-c4ccccc4F)c(Cl)cc23)[C@@H](C)C1` [Compound 70], the IC50 (Homo sapiens, NCI-H358, 120 h) stood at 15.1 nM. On the same count and under the same terms, then `C=CC(=O)N1CCN(c2nc(=O)n(-c3ccc4scnc4c3C(C)C)c3nc(-c4ccccc4F)c(Cl)cc23)[C@@H](C)C1` [Compound 71], with 20.1 nM; and `C=CC(=O)N1CCN(c2nc(=O)n(-c3c(C(C)C)nc4c(ncn4C)c3C)c3nc(-c4ccccc4F)c(F)cc23)[C@@H](C)C1` [Compound 73], with 66 nM; and `C=CC(=O)N1CCN(c2nc(=O)n(-c3c(C4CC4)nc(OC)nc3C3CC3)c3nc(-c4c(N)cccc4F)c(F)cc23)[C@@H](C)C1` [Compound 74], with 5.7 nM. Same read-out and setting: for `C=CC(=O)N1CCN(c2nc(=O)n(-c3c(C(C)C)nc(C)nc3C(C)C)c3nc(-c4c(O)cccc4F)c(F)cc23)[C@@H](C)C1` [Compound 77] the value was 8.6 nM. With `C=CC(=O)N1CCN(c2nc(=O)n(-c3c(C(C)C)nc(C)nc3C(C)C)c3nc(-c4c(N)cccc4F)c(F)cc23)[C@@H](C)C1` [Compound 78], the IC50 (Homo sapiens, NCI-H358, 120 h) stood at 10.4 nM. Moreover, the “fold more potent: 2-amino-6-fluoro-phenyl compound vs. corresponding 2-fluoro-phenyl compound at R8” value (NCI-H358 IC50 comparison) was “only slightly more potent”. As for `C=CC(=O)N1C[C@H](C)N(c2nc(=O)n(-c3c(C4CC4)nc(OC)nc3C3CC3)c3nc(-c4c(O)cccc4F)c(F)cc23)C[C@H]1C` [Compound 79], the IC50 (Homo sapiens, NCI-H358, 120 h) was 12.9 nM. Same read-out and setting: for `C=CC(=O)N1C[C@H](C)N(c2nc(=O)n(-c3c(C4CC4)nc(OC)nc3C3CC3)c3nc(-c4c(N)cccc4F)c(F)cc23)C[C@H]1C` [Compound 80] the value was 8.1 nM; for `C=CC(=O)N1CCN(c2nc(=O)n(-c3c(C)cc(OC)nc3C(C)C)c3nc(-c4c(O)cccc4F)c(F)cc23)[C@@H](C)C1` [Compound 81], 35.9 nM.

For `C=CC(=O)N1CCN(c2nc(=O)n(-c3c(C(C)C)nc(N4CCNCC4)nc3C(C)C)c3nc(-c4c(O)cccc4F)c(Cl)cc23)[C@@H](C)C1` [Compound 82], the IC50 (Homo sapiens, NCI-H358, 120 h) is 10.8 nM. The same measure, in the same setting: then `C=CC(=O)N1CCN(c2nc(=O)n(-c3c(C(C)C)nc(N4CCNCC4)nc3C(C)C)c3nc(-c4c(N)cccc4F)c(Cl)cc23)[C@@H](C)C1` [Compound 83], with 5.9 nM; and `C=CC(=O)N1C[C@H](C)N(c2nc(=O)n(-c3c(C(C)C)nc(N4CCNCC4)nc3C(C)C)c3nc(-c4ccccc4F)c(Cl)cc23)C[C@H]1C` [Compound 84], with 6.9 nM. On the same count and under the same terms, then `C=CC(=O)N1C[C@H](C)N(c2nc(=O)n(-c3c(C4CC4)nc(N4CCNCC4)nc3C3CC3)c3nc(-c4ccccc4F)c(Cl)cc23)C[C@H]1C` [Compound 85], with 9.7 nM. As to `C=CC(=O)N1C[C@H](C)N(c2nc(=O)n(-c3c(C4CC4)nc(N4CCNCC4)nc3C3CC3)c3nc(-c4c(O)cccc4F)c(Cl)cc23)C[C@H]1C` [Compound 86], where the note is “Homo sapiens, NCI-H358, 120 h”, the IC50 was 8.6 nM. Turning to `C=CC(=O)N1C[C@H](C)N(c2nc(=O)n(-c3c(C(C)C)nc(N4CCNCC4)nc3C(C)C)c3nc(-c4c(N)cccc4F)c(Cl)cc23)C[C@H]1C` [Compound 87], under “Homo sapiens, NCI-H358, 120 h”, the IC50 stood at 4.1 nM. On the same count and under the same terms, for `C=CC(=O)N1CCN(c2nc(=O)n(-c3c(C4CC4)nc(N4CCNCC4)nc3C3CC3)c3nc(-c4c(O)cccc4F)c(Cl)cc23)[C@@H](C)C1` [Compound 88] the value was 21.2 nM; for `C=CC(=O)N1CCN(c2nc(=O)n(-c3c(C4CC4)nc(N4CCN(C)CC4)nc3C3CC3)c3nc(-c4c(O)cccc4F)c(Cl)cc23)[C@@H](C)C1` [Compound 89], 1.5 nM; for `C=CC(=O)N1CCN(c2nc(=O)n(-c3c(C4CC4)nc(N4CCN(C)CC4)nc3C3CC3)c3nc(-c4ccccc4F)c(Cl)cc23)[C@@H](C)C1` [Compound 91], 7.8 nM. The same measure, in the same setting: then `C=CC(=O)N1CCN(c2nc(=O)n(-c3c(C4CC4)nc(N4CCNCC4)nc3C3CC3)c3nc(-c4c(N)cccc4F)c(Cl)cc23)[C@@H](C)C1` [Compound 92], with 2.8 nM. Same read-out and setting: then `C=CC(=O)N1CCN(c2nc(=O)n(-c3c(C4CC4)nc(N4CCN(C)CC4)nc3C3CC3)c3nc(-c4c(N)cccc4F)c(Cl)cc23)[C@@H](C)C1` [Compound 93], with 1.8 nM; and `C=CC(=O)N1C[C@H](C)N(c2nc(=O)n(-c3c(C(C)C)nc(N4CCNCC4)nc3C(C)C)c3nc(-c4ccccc4F)c(F)cc23)C[C@H]1C` [Compound 94], with 37.5 nM. `C=CC(=O)N1C[C@H](C)N(c2nc(=O)n(-c3c(C(C)C)nc(N4CCNCC4)nc3C(C)C)c3nc(-c4c(O)cccc4F)c(F)cc23)C[C@H]1C` [Compound 95]: the IC50 (Homo sapiens, NCI-H358, 120 h) came out at 14.6 nM. In the case of `C=CC(=O)N1C[C@H](C)N(c2nc(=O)n(-c3c(C(C)C)nc(N4CCNCC4)nc3C(C)C)c3nc(-c4c(N)cccc4F)c(F)cc23)C[C@H]1C` [Compound 96], the IC50 (Homo sapiens, NCI-H358, 120 h) was found to be 10.8 nM. Turning to `C=CC(=O)N1C[C@H](C)N(c2nc(=O)n(-c3c(C(C)C)nc(N4CCN(C)CC4)nc3C(C)C)c3nc(-c4c(N)cccc4F)c(F)cc23)C[C@H]1C` [Compound 97], under “Homo sapiens, NCI-H358, 120 h”, the IC50 was 7.3 nM. Take `C=CC(=O)N1C[C@H](C)N(c2nc(=O)n(-c3c(C4CC4)nc(N4CCNCC4)nc3C3CC3)c3nc(-c4c(N)cccc4F)c(F)cc23)C[C@H]1C` [Compound 98]: the IC50 (Homo sapiens, NCI-H358, 120 h) turned out to be 7.4 nM. The same measure, in the same setting: then `C=CC(=O)N1C[C@H](C)N(c2nc(=O)n(-c3c(C4CC4)nc(N4CCN(C)CC4)nc3C3CC3)c3nc(-c4c(N)cccc4F)c(F)cc23)C[C@H]1C` [Compound 99], with 5.8 nM; and `C=CC(=O)N1C[C@H](C)N(c2nc(=O)n(-c3c(C4CC4)nc(N4CCNCC4)nc3C3CC3)c3nc(-c4c(O)cccc4F)c(F)cc23)C[C@H]1C` [Compound 100], with 14.1 nM. The same measure, in the same setting: then `C=CC(=O)N1C[C@H](C)N(c2nc(=O)n(-c3c(C4CC4)nc(N4CCN(C)CC4)nc3C3CC3)c3nc(-c4c(O)cccc4F)c(F)cc23)C[C@H]1C` [Compound 101], with 25.8 nM; and `C=CC(=O)N1C[C@H](C)N(c2nc(=O)n(-c3c(C4CC4)nc(N4CCNCC4)nc3C3CC3)c3nc(-c4ccccc4F)c(F)cc23)C[C@H]1C` [Compound 102], with 37.4 nM; and `C=CC(=O)N1C[C@H](C)N(c2nc(=O)n(-c3c(C4CC4)nc(N4CCN(C)CC4)nc3C3CC3)c3nc(-c4ccccc4F)c(F)cc23)C[C@H]1C` [Compound 103], with 47.6 nM. On to `C=CC(=O)N1CCN(c2nc(=O)n(-c3c(C(C)C)nc(C4CC4)nc3C(C)C)c3nc(-c4c(N)cccc4F)c(F)cc23)[C@@H](C)C1` [Compound 105], for which, where the note is “Homo sapiens, NCI-H358, 120 h”, the IC50 was 8.8 nM. As for `C=CC(=O)N1CCN(c2nc(=O)n(-c3c(C(C)C)nc(N)nc3C(C)C)c3nc(-c4c(O)cccc4F)c(Cl)cc23)[C@@H](C)C1` [Compound 106], the IC50 (Homo sapiens, NCI-H358, 120 h) came to 10.2 nM. The same measure, in the same setting: then `C=CC(=O)N1C[C@H](C)N(c2nc(=O)n(-c3c(C(C)C)nc(N)nc3C(C)C)c3nc(-c4c(O)cccc4F)c(Cl)cc23)C[C@H]1C` [Compound 107], with 5.2 nM.

The values are drawn from US12110289B2, “Heterocyclic compounds, preparation methods and uses thereof” (InventisBio Co., Ltd., priority 2020, dated 2024).
